# Laboratory results as given in patent US20250011288A1 (BRISTOL-MYERS SQUIBB COMPANY, priority 2021, published 2025).
# Target: T1, human RXFP1 (Homo sapiens, UniProt Q9HBX9)
# T1 construct: expressed in transfected cells
# T1 sequence (Q9HBX9 1-757): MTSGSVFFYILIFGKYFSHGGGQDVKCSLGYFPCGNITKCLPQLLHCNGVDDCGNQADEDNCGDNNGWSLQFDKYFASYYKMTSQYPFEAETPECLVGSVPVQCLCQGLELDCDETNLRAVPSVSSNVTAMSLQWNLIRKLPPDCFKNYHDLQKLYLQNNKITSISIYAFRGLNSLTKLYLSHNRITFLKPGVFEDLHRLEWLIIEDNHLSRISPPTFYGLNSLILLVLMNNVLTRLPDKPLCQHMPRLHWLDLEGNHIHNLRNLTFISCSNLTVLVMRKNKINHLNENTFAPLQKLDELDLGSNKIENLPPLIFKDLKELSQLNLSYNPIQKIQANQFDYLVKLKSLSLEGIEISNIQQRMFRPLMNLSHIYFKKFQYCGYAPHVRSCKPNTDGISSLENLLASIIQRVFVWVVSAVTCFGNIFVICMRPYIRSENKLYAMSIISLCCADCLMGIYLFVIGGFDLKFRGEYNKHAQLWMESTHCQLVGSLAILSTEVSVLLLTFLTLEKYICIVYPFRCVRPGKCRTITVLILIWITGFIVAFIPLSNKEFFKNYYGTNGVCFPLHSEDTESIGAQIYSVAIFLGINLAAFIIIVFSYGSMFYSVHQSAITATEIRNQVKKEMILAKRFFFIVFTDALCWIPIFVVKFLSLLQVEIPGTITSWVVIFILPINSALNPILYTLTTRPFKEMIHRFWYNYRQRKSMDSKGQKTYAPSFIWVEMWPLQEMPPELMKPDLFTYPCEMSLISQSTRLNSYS
# Assay: human RXFP1 (hRXFP1) HEK293 cAMP assay (HTRF)
# Format: cell-based
# Conditions: HEK293 cells stably expressing human RXFP1, 30 min at room temperature
# How it was run: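 Intracellular cAMP was quantified by HTRF after a 30 min room-temperature exposure of hRXFP1-HEK293 cells (1500/well) to compound at 0.010 nM–50 µM final, 2% DMSO. Buffer was HBSS with 20 mM HEPES, 0.05% BSA and 0.5 mM IBMX; values came from a 4-parameter logistic fit.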
row,SMILES,EC50
1,"O=C(O)c1ccc(F)c(-c2cnc(OCCO)c(C(=O)N[C@@H]3C4CCC(/C4=C/C(F)(F)F)[C@@H]3C(=O)Nc3ccc(F)c(C(F)(F)F)c3)n2)c1 (stereo partly drawn) [Example 47, 4-Fluoro-3-(6-{[(2R,3S,7Z)-3-{[4-fluoro-3-(trifluoromethyl)phenyl]carbamoyl}-7-(2,2,2-trifluoroethylidene)bicyclo[2.2.1]heptan-2-yl]carbamoyl}-5-(2-hydroxyethoxy)pyrazin-2-yl)benzoic acid]",200 nM
2,O=C(N[C@@H]1C2CCC(/C2=C/C(F)(F)F)[C@@H]1C(=O)Nc1ccc(F)c(C(F)(F)F)c1)c1nc(Br)cnc1OCCO (some centres unmarked) [Example 48],880 nM
3,"COc1ncc(C#CCO)cc1C(=O)N[C@@H]1C2CCC(/C2=C/C(F)(F)F)[C@@H]1C(=O)Nc1ccc(F)c(C(F)(F)F)c1 (stereo partly drawn) [Example 49, N-[(2R,3S,7Z)-3-{[4-fluoro-3-(trifluoromethyl)phenyl]carbamoyl}-7-(2,2,2-trifluoroethylidene)bicyclo[2.2.1]heptan-2-yl]-5-(3-hydroxyprop-1-yn-1-yl)-2-methoxypyridine-3-carboxamide]",153 nM
4,"COc1ncc(CCCO)cc1C(=O)N[C@@H]1C2CCC(/C2=C/C(F)(F)F)[C@@H]1C(=O)Nc1ccc(F)c(C(F)(F)F)c1 (stereo partly drawn) [Example 50, N-[(2R,3S,7Z)-3-{[4-fluoro-3-(trifluoromethyl)phenyl]carbamoyl}-7-(2,2,2-trifluoroethylidene)bicyclo[2.2.1]heptan-2-yl]-5-(3-hydroxypropyl)-2-methoxypyridine-3-carboxamide]",129 nM
5,"CCCc1cnc(OC)c(C(=O)N[C@@H]2C3CCC(/C3=C/C(F)(F)F)[C@@H]2C(=O)Nc2ccc(F)c(C(F)(F)F)c2)c1 (stereo partly drawn) [Example 51, N-[(2R,3S,7Z)-3-{[4-fluoro-3-(trifluoromethyl)phenyl]carbamoyl}-7-(2,2,2-trifluoroethylidene)bicyclo[2.2.1]heptan-2-yl]-2-methoxy-5-propylpyridine-3-carboxamide]",1300 nM
6,"CCCc1cnc(OC)c(C(=O)N[C@@H]2C3CCC(/C3=C/C(F)(F)F)[C@@H]2C(=O)Nc2ccc(F)c(C(F)(F)F)c2)n1 (stereo partly drawn) [Example 52, N-[(2R,3S,7Z)-3-{[4-fluoro-3-(trifluoromethyl)phenyl]carbamoyl}-7-(2,2,2-trifluoroethylidene)bicyclo[2.2.1]heptan-2-yl]-3-methoxy-6-propylpyrazine-2-carboxamide]",1300 nM
7,"COc1nn(-c2cccc(C(=O)O)c2)cc1C(=O)N[C@@H]1C2CCC(/C2=C/C(F)(F)F)[C@@H]1C(=O)Nc1ccc(F)c(C(F)(F)F)c1 (stereo partly drawn) [Example 53, 3-(4-{[(2R,3S,7Z)-3-{[4-fluoro-3-(trifluoromethyl)phenyl]carbamoyl}-7-(2,2,2-trifluoroethylidene)bicyclo[2.2.1]heptan-2-yl]carbamoyl}-3-methoxy-1H-pyrazol-1-yl)benzoic acid]",1600 nM
8,"COc1nn(-c2cccc(C(=O)O)c2)cc1C(=O)N[C@@H]1C2CCC(/C2=C/c2ccccc2)[C@@H]1C(=O)Nc1ccc(F)c(C(F)(F)F)c1 (stereo partly drawn) [Example 54, 3-(4-{[(2R,3S,7Z)-3-{[4-fluoro-3-(trifluoromethyl)phenyl]carbamoyl}-7-(phenylmethylidene)bicyclo [2.2.1]heptan-2-yl]carbamoyl}-3-methoxy-1H-pyrazol-1-yl)benzoic acid]",1200 nM
9,"N#Cc1ccc2c(c1)CCc1c(C(=O)N[C@H]3[C@@H](C(=O)Nc4ccc(F)c(C(F)(F)F)c4)[C@H]4CC[C@@H]3/C4=C\C(F)(F)F)nn(CC(F)F)c1-2 [Example 55, 7-cyano-1-(2,2-difluoroethyl)-N-((1R,2R,3S,4R,Z)-3-((4-fluoro-3-(trifluoromethyl)phenyl)carbamoyl)-7-(2,2,2-trifluoroethylidene)bicyclo[2.2.1]heptan-2-yl)-4,5-dihydro-1H-benzo[g]indazole-3-carboxamide]",360 nM
10,"Cc1nc(O)c(C(=O)N[C@H]2[C@@H](C(=O)Nc3ccc(F)c(C(F)(F)F)c3)[C@H]3CC[C@@H]2/C3=C\C(F)(F)F)cc1-c1cccc(C(=O)O)c1 [Example 56, 3-(5-(((1R,2R,3S,4R,Z)-3-((4-fluoro-3-(trifluoromethyl)phenyl)carbamoyl)-7-(2,2,2-trifluoroethylidene)bicyclo[2.2.1]heptan-2-yl)carbamoyl)-6-hydroxy-2-methylpyridin-3-yl)benzoic acid]",2800 nM
11,"CC(C)(O)COc1ccc2c(C(=O)N[C@@H]3C4CCC(/C4=C/C(F)(F)F)[C@@H]3C(=O)Nc3ccc(F)c(C(F)(F)F)c3)nn(C(F)F)c2c1 (stereo partly drawn) [Example 57, 1-(difluoromethyl)-N-[(2R,3S,7Z)-3-{[4-fluoro-3-(trifluoromethyl)phenyl]carbamoyl}-7-(2,2,2-trifluoro-ethylidene)bicyclo[2.2.1]heptan-2-yl]-6-(2-hydroxy-2-methylpropoxy)-1H-indazole-3-carboxamide]",3900 nM
12,"O=C(N[C@@H]1C2CCC(/C2=C/C(F)(F)F)[C@@H]1C(=O)Nc1ccc(F)c(C(F)(F)F)c1)c1cc(Br)cc2c1OCC2 (stereo partly drawn) [Example 58, 5-bromo-N-[(2R,3S,7Z)-3-{[4-fluoro-3-(trifluoromethyl)phenyl]carbamoyl}-7-(2,2,2-trifluoro-ethylidene)bicyclo[2. 2.1]heptan-2-yl]-2,3-dihydro-1-benzofuran-7-carboxamide]",3000 nM
13,"COc1ncc(C2=NOC3CC(C(N)=O)CC23)cc1C(=O)N[C@H]1[C@@H](C(=O)Nc2ccc(F)c(C(F)(F)F)c2)[C@H]2CC[C@@H]1/C2=C\C1CC1 (stereo partly drawn) [Example 66, 5-{5-carbamoyl-3aH,4H,5H,6H, 6aH-cyclopenta[d][1, 2]oxazol-3-yl}-N-[(1R,2R,3S, 4R,7Z)-7-(cyclopropylmethylidene)-3-{[4-fluoro-3-(trifluoromethyl)phenyl]carbamoyl}bicyclo[2.2.1]heptan-2-yl]-2-methoxypyridine-3-carboxamide]",1.3 nM
14,"COc1ncc(COC2(CO)CC2)cc1C(=O)N[C@H]1[C@@H](C(=O)Nc2ccc(F)c(C(F)(F)F)c2)[C@H]2CC[C@@H]1/C2=C\C1CC1 [Example 73, N-[(1R,2R,3S, 4R,7Z)-7-(cyclopropyl-methylidene)-3-{[4-fluoro-3-(trifluoromethyl)phenyl]carbamoyl}bicyclo[2.2.1]heptan-2-yl]-5-{[1-(hydroxymethyl)cyclopropoxy]methyl}-2-methoxypyridine-3-carboxamide]",24 nM
15,"COc1ncc(C(=O)N2CC(O)C2)cc1C(=O)N[C@H]1[C@@H](C(=O)Nc2ccc(F)c(C(F)(F)F)c2)[C@H]2CC[C@@H]1/C2=C\C1CC1 [Example 75, N-[(1R,2R,3S, 4R,7Z)-7-(cyclopropyl-methylidene)-3-{[4-fluoro-3-(trifluoromethyl)phenyl]carbamoyl}bicyclo[2.2.1]heptan-2-yl]-5-(3-hydroxyazetidine-1-carbonyl)-2-methoxypyridine-3-carboxamide]",8.1 nM
16,"COc1ncc(C(=O)N2CC3(COC3)C2)cc1C(=O)N[C@H]1[C@@H](C(=O)Nc2ccc(F)c(C(F)(F)F)c2)[C@H]2CC[C@@H]1/C2=C\C1CC1 [Example 76, N-[(1R,2R, 3S,4R,7Z)-7-(cyclopropyl-methylidene)-3-{[4-fluoro-3-(trifluoromethyl)phenyl]carbamoyl}bicyclo[2.2.1]heptan-2-yl]-2-methoxy-5-{2-oxa-6-azaspiro[3.3]heptane-6-carbonyl}pyridine-3-carboxamide]",65 nM
17,"COc1cn(CCS(C)(=O)=O)nc1C(=O)N[C@H]1[C@@H](C(=O)Nc2ccc(F)c(C(F)(F)F)c2)[C@H]2CC[C@@H]1/C2=C\C1CC1 [Example 77, N-[(1R,2R,3S,4R,7Z)-7-(cyclopropylmethylidene)-3-{[4-fluoro-3-(trifluoromethyl)phenyl]carbamoyl}bicyclo[2.2.1]heptan-2-yl]-1-(2-methanesulfonylethyl)-4-methoxy-1H-pyrazole-3-carboxamide]",71 nM
18,"COc1ncc(C(=O)OC(C)(C)C)cc1C(=O)N[C@H]1[C@@H](C(=O)Nc2ccc(F)c(C(F)(F)F)c2)[C@H]2CC[C@@H]1/C2=C\C1CC1 [Example 78, tert-butyl 5-(((1R,2R,3S,4R,Z)-7-(cyclopropylmethylene)-3-((4-fluoro-3-(trifluoromethyl)phenyl)carbamoyl)bicyclo[2.2.1]heptan-2-yl)carbamoyl)-6-methoxynicotinate]",140 nM
19,COCCn1cc(OC)c(C(=O)N[C@@H]2C3CCC(/C3=C/C3CC3)[C@@H]2C(=O)Nc2ccc(F)c(C(F)(F)F)c2)n1 (some centres unmarked) [Example 79],230 nM
20,"COc1cn(CCCO)nc1C(=O)N[C@H]1[C@@H](C(=O)Nc2ccc(F)c(C(F)(F)F)c2)[C@H]2CC[C@@H]1/C2=C\C1CC1 [Example 80, N-[(1R,2R,3S, 4R,7Z)-7-(cyclopropyl-methylidene)-3-{[4-fluoro-3-(trifluoromethyl)phenyl]carbamoyl}bicyclo[2.2.1]heptan-2-yl]-1-(3-hydroxypropyl)-4-methoxy-1H-pyrazole-3-carboxamide]",260 nM
